# Source: paper PMC6749521, “The Effect of Flavonoid Aglycones on the CYP1A2, CYP2A6, CYP2C8 and CYP2D6 Enzymes Activity” (Molecules, 2019)
# Like-named read-outs stand apart in the source and are kept apart here.
# What was measured:
# CYP3A4 = system: CYP3A4; design: method as in PMID 30301254; conditions: statistical significance p < 0.1; cited from earlier work
# CYP2A6 [1] = molecular target: T1, CYP2A6 (Homo sapiens, UniProt P11509); experiment: CYP2A6 enzyme activity, coumarin 7-hydroxylation (MDI, TDI, DI assays), recombinant baculosomes; conditions: for Inhibition of CYP2A6 enzyme activity / activity at 30 min, 1 µM: 1 µM flavonoid; for activity at 30 min, 1 µM: human, pH 7.4, probe coumarin (7-hydroxylation), 10 µM, Residual CYP2A6 enzyme activity
# T1 sequence (P11509 1-494): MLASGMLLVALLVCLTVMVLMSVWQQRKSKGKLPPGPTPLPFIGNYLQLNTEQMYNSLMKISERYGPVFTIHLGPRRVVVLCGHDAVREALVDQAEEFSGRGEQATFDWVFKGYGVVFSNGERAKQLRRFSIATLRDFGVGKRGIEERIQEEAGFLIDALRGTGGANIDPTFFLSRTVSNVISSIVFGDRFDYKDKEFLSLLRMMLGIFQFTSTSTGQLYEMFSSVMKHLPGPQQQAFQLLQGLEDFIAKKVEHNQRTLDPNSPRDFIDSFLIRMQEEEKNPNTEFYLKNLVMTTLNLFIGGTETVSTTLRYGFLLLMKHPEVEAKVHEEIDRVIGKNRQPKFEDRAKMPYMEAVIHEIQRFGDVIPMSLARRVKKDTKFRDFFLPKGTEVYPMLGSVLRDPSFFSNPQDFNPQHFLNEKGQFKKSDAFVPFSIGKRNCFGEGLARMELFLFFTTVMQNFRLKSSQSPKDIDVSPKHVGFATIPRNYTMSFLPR
# Method: (§1) The recombinant baculosomes with hyperexpressed cytochromes P450 (1A2, 2A6, 2C8, and 2D6) and coexpressed NADPH cytochrome P450 reductase and cytochrome b5 were used as a source of enzyme. Baculosomes were commercially obtained from Thermo Fisher Scientific (Waltham, MA, USA), and all other chemicals from Sigma-Aldrich if not otherwise indicated. A 1.0 M solution phosphate buffer of pH 7.4 was prepared in house. NADPH generating system was prepared of 0.1 M glucose-6-phosphate, 10 mg mL^−1 NADP^+, and 1000 IU mL^−1 glucose-6-phosphate dehydrogenase in ratio 100:50:2 (v/v/v).
# The aromatic hydroxylation of coumarin at the position 7 was used as a marker reaction for CYP2A6. The incubation conditions were the same as for CYP1A2 enzyme (vide supra) unless otherwise stated. The final concentration of coumarin was 10 µM, while the incubation time was extended to 30 min.
# HPLC-DAD analysis was conducted on the same system as the CYP1A2 enzyme with the following modifications: The gradient timetable (t/min, %B) was (0, 20), (1.5, 20), (10, 70), (11, 20), (17, 20), and the detection wavelength was 330 nm. The retention time of the substrate (coumarin) was 7.5 min, while the product (7-hydroxycoumarin) was detected at 4.8 min. The amount of generated product was determined as the area under the curve based on the calibration curve of the standard.
# (§2) Three types of experiments were conducted to determine metabolism dependent inhibition, time dependent inhibition, and direct inhibition of CYP1A2, CYP2A6, CYP2C8, and CYP2D6 enzymes.
# (§3) To determine metabolism dependent inhibition (MDI assay), the flavonoid was first preincubated with the enzyme with the addition of the generating system for 30 min, after which the marker substrate was added to determine residual enzyme activity (as described above for each enzyme).
# (§4) If metabolism dependent inhibition was determined, time dependent inhibition and direct inhibition were tested. Time dependent inhibition (TDI assay) was assessed by preincubating the flavonoid and enzyme, without the generating system, after which residual activity was determined by adding the NADPH generating system along with the substrate (as described above for each enzyme).
# (§5) The direct inhibition assay (DI assay) was conducted without preincubation, i.e., the NADPH generating system was added to the incubation mixture containing flavonoid and substrate following the experimental set-up described above for each individual cytochrome P450 enzyme.
# (§6) Pure time dependent inhibitors require time to interact with the enzyme. Thus, TDI inhibitors will show a reduction of enzyme activity in assays with preincubations, i.e., the MDI and TDI assays, but not in the DI assay (no preincubation). […] DI inhibitors will reduce enzyme activity in all three assays (MDI, TDI, and DI).
# (§7) All incubations were conducted in triplicate. The results are expressed as the residual activity of the enzyme, i.e., the percentage of product generated in incubation with the addition of flavonoid in ratio to the control without flavonoid. The statistical significance was tested with Student’s t-test in the program R (The R Project for Statistical Computing, Vienna, Austria).
# CYP2A6 [2] = conditions: ref 31 (Boonruanga et al.), cited from earlier work
# CYP2C8 = molecular target: T2, CYP2C8 (Homo sapiens, UniProt P10632); experiment: CYP2C8 enzyme activity, paclitaxel 6α-hydroxylation (MDI, TDI, DI assays), recombinant baculosomes; assay type: biochemical; conditions: for Inhibition of CYP2C8 paclitaxel 6-α-hydroxylation / CYP2C8 enzyme activity in the TDI assay: 1 µM flavonoid; for Type of CYP2C8 inhibition: concluded from MDI, TDI, DI assays at 1 µM
# T2 construct: purchased Thermo Fisher Scientific; host or cells: baculosomes
# T2 sequence (P10632 1-490): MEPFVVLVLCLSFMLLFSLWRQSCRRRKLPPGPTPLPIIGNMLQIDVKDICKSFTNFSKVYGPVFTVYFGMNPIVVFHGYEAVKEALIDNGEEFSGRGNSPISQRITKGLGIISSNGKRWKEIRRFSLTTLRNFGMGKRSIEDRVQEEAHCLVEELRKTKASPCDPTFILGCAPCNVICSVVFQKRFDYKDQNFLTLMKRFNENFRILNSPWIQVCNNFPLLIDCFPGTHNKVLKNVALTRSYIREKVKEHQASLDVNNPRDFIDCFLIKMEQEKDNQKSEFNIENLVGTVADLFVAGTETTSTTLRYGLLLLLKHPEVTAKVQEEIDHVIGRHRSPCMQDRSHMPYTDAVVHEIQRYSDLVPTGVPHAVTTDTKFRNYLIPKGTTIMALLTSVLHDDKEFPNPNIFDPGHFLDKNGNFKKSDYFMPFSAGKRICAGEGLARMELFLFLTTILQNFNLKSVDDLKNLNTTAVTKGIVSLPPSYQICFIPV
# Method: as §1
# Paclitaxel 6α-hydroxylation was used as a marker reaction for monitoring CYP2C8 enzyme activity (Figure 2). The incubation conditions were the same as for CYP1A2 enzyme (vide supra) unless otherwose stated. The final concentration of paclitaxel was 20 µM, while the incubation time was set to 30 min.
# HPLC-DAD analysis was conducted on the same system as the CYP1A2 enzyme with the following modifications: The gradient timetable (t/min, %B) was (0, 50), (2, 50), (10, 90), (11, 50), (17, 50), and the detection wavelength was 227 nm. […] The amount of generated product was determined as the area under the curve based on the calibration curve of the standard.
# as §2, §3, §4, §5, §6, §7
# CYP1A2 [3] = system: CYP1A2; design: method as in ref 25 (Kim et al.); conditions: recombinant cytochrome P450 system; ref 25 (Kim et al.); cited from earlier work
# rat liver microsomes = system: rat liver microsomes; design: method as in ref 24 (Siess et al.); conditions: ref 24 (Siess et al.), cited from earlier work
# CYP1A2 [4] = molecular target: T3, CYP1A2 (Homo sapiens, UniProt P05177); experiment: CYP1A2 enzyme activity, phenacetin O-deethylation (MDI, TDI, DI assays), recombinant baculosomes; conditions: for activity at 15 min, 1 µM: human, pH 7.4, probe phenacetin (O-deethylation), 150 µM
# T3 sequence (P05177 1-516): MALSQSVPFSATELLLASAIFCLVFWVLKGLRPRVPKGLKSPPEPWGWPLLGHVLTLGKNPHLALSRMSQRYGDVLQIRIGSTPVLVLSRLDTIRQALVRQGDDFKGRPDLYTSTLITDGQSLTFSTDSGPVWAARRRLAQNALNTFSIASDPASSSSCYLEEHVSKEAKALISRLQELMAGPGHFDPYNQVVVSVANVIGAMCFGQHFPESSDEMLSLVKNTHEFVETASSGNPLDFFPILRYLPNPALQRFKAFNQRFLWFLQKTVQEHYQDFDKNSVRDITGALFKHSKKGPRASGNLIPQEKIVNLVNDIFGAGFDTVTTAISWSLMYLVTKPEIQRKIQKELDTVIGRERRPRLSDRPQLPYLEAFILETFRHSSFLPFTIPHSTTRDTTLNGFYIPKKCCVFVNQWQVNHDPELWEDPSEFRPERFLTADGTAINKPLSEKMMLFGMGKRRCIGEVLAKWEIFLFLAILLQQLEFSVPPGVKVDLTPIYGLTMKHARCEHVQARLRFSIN
# Method: as §1
# Phenacetine O-deethylation was used as a marker reaction for monitoring CYP1A2 enzyme activity (Figure 2). Incubations of 100 µL were conducted at the temperature of 37 °C. The pH of the incubation mixture was set at 7.4 using a potassium phosphate buffer (final concentration 50 mM). The total amount of CYP1A2 enzyme was 5 pmol, and the final concentration of substrate was 150 µM. Residual activity was determined by incubating the flavonoid (1 µM) with phenacetine as a substrate for 15 min, with or without preincubation, depending of the type of inhibition assay. Reactions were started by the addition of 15 µL of NADPH generating system, while the reactions were stopped by the addition of 1 mL 1% formic acid in acetonitrile. After centrifugation (10 min, 1900× g), the clear solution was transferred to a vial for HPLC analysis.
# HPLC analysis was performed on Agilent 1100 instrument (Santa Clara, CA, USA) coupled with a diode array detector (DAD) on Luna C18 column (4.6 × 150 mm, 3 μm). The gradient method was used for separation. Mobile phase A consisted of water, acetonitrile, and glacial acetic acid in the volume ratio of 90:10:0.1, while mobile phase B contained the same solvents in the ratio 10:90:0.1. The following gradient timetable was used (t/min, %B): (0, 0), (2, 0), (13, 55), (14, 0), (20, 0). The flow rate was 1 mL/min, and chromatograms were recorded at 254 nm. Volume of incubation injected to the column was 15 µL. […] The amount of generated product (acetaminophen) was determined as the area under the curve based on the calibration curve of the standard.
# as §2, §3, §4, §5, §6
# All incubations were conducted in triplicate. The results are expressed as the residual activity of the enzyme, i.e., the percentage of product generated in incubation with the addition of flavonoid in ratio to the control without flavonoid.
# CYP1A2 [5] = system: CYP1A2; design: method as in ref 23 (Lee et al.); conditions: ref 23 (Lee et al.); cited from earlier work
# [6] = concluded from MDI, TDI, DI assays at 1 µM
compound,measurement,setting,value
COc1ccc(-c2cc(=O)c3c(O)cc(O)cc3o2)cc1 [acacetin],Inhibition of CYP3A4 metabolic activity,CYP3A4,inhibition
O=c1cc(-c2ccc(O)cc2)oc2cc(O)cc(O)c12 [apigenin],Inhibition of CYP2A6 enzyme activity,CYP2A6 [1],inhibited
same,"activity at 30 min, 1 µM",CYP2A6 [1]; direct inhibition (DI) assay,48 ± 1%
same,"activity at 30 min, 1 µM","CYP2A6 [1]; metabolism dependent inhibition (MDI) assay, coumarin 10 µM",47 ± 7%
same,IC50,"CYP2A6 [2]; read-out: IC50, direct inhibition assay",900 ± 70 nM
same,IC50,"CYP2A6 [2]; read-out: IC50, metabolism dependent inhibition assay",770 ± 160 nM
COc1cc(OC)c2c(=O)cc(-c3ccccc3)oc2c1 [chrysin-dimethylether],Inhibition of CYP3A4 metabolic activity,CYP3A4,inhibition
same,Inhibition of CYP2C8 paclitaxel 6-α-hydroxylation,CYP2C8,inhibition
same,CYP2C8 enzyme activity in the TDI assay,CYP2C8,reduction of enzyme activity was not observed
same,Type of CYP2C8 inhibition,CYP2C8,mixed reversible and irreversible inhibitors
O=c1cc(-c2ccccc2)oc2cc(O)cc(O)c12 [chrysin],Inhibition of CYP3A4 metabolic activity,CYP3A4,inhibition
same,"Type of CYP1A2 inhibition, ethoxyresorufin O-deethylation",CYP1A2 [3],reversible mix inhibition
same,Type of inhibition of ethoxy- and pentoxy-resorufin dealkylation,rat liver microsomes,mix type reversible
same,Inhibition of CYP2C8 paclitaxel 6-α-hydroxylation,CYP2C8,inhibition
same,CYP2C8 enzyme activity in the TDI assay,CYP2C8,reduction of enzyme activity was not observed
same,Type of CYP2C8 inhibition,CYP2C8,mixed reversible and irreversible inhibitors
same,Inhibition of CYP1A2 activity,CYP1A2 [4]; 1 µM flavonoid,inhibited
same,"Residual CYP1A2 enzyme activity, time dependent inhibition (TDI) assay","CYP1A2 [4]; 1 µM flavonoid, preincubation without generating system",complete inhibition
same,Type of CYP1A2 inhibition,CYP1A2 [4]; [6],reversible
same,"activity at 15 min, 1 µM",CYP1A2 [4],18 ± 4%
same,"activity at 15 min, 1 µM","CYP1A2 [4]; Residual CYP1A2 enzyme activity, direct inhibition (DI) assay, 1 µM flavonoid, no preincubation",23 ± 6%
same,"Type of CYP1A2 inhibition, N3-demethylation of caffeine",CYP1A2 [5],"reversible, competitive inhibition"
O=c1cc(-c2ccccc2)oc2ccccc12 [flavone],Inhibition of CYP3A4 metabolic activity,CYP3A4,inhibition
O=c1c(O)c(-c2ccccc2)oc2cc(O)cc(O)c12 [galangin],Inhibition of CYP2A6 enzyme activity,CYP2A6 [1],inhibited
same,Inhibition of CYP3A4 metabolic activity,CYP3A4,inhibition
same,Inhibition of CYP2C8 paclitaxel 6-α-hydroxylation,CYP2C8,inhibition
same,CYP2C8 enzyme activity in the TDI assay,CYP2C8,reduction of enzyme activity was not observed
same,Type of CYP2C8 inhibition,CYP2C8,mixed reversible and irreversible inhibitors
COc1ccc([C@@H]2CC(=O)c3c(O)cc(O)cc3O2)cc1O [hesperetin],Inhibition of CYP3A4 metabolic activity,CYP3A4,inhibition
O=c1c(O)c(-c2ccc(O)cc2O)oc2cc(O)cc(O)c12 [morin],Inhibition of CYP3A4 metabolic activity,CYP3A4,inhibition
same,Inhibition constant relative to chrysin,rat liver microsomes; morin versus chrysin,16 fold
same,Ki,"rat liver microsomes; read-out: Inhibition constant, ethoxy- and pentoxy-resorufin dealkylation",5000 nM
same,Type of inhibition of ethoxy- and pentoxy-resorufin dealkylation,rat liver microsomes,mix type reversible
same,Inhibition of CYP1A2 activity,CYP1A2 [4]; 1 µM flavonoid,inhibited
O=C1C[C@@H](c2ccccc2)Oc2cc(O)cc(O)c21 [pinocembrin],Inhibition of CYP3A4 metabolic activity,CYP3A4,inhibition
COc1ccc(-c2oc3cc(O)cc(O)c3c(=O)c2O)cc1O [tamarixetin],Inhibition of CYP3A4 metabolic activity,CYP3A4,inhibition
COc1ccc(-c2cc(=O)c3c(OC)c(OC)c(OC)c(OC)c3o2)cc1 [tangeretin],Inhibition of CYP2A6 enzyme activity,CYP2A6 [1],inhibited
same,Type of CYP2A6 inhibition,CYP2A6 [1]; [6],direct inhibitor
same,Inhibition of CYP3A4 metabolic activity,CYP3A4,inhibition
